This note sets out measurements from US20080076750A1, “Azetidinone Derivatives and Methods of Use Thereof” (priority 2006, published 2008).

T2 sequence (O95180 whole entry): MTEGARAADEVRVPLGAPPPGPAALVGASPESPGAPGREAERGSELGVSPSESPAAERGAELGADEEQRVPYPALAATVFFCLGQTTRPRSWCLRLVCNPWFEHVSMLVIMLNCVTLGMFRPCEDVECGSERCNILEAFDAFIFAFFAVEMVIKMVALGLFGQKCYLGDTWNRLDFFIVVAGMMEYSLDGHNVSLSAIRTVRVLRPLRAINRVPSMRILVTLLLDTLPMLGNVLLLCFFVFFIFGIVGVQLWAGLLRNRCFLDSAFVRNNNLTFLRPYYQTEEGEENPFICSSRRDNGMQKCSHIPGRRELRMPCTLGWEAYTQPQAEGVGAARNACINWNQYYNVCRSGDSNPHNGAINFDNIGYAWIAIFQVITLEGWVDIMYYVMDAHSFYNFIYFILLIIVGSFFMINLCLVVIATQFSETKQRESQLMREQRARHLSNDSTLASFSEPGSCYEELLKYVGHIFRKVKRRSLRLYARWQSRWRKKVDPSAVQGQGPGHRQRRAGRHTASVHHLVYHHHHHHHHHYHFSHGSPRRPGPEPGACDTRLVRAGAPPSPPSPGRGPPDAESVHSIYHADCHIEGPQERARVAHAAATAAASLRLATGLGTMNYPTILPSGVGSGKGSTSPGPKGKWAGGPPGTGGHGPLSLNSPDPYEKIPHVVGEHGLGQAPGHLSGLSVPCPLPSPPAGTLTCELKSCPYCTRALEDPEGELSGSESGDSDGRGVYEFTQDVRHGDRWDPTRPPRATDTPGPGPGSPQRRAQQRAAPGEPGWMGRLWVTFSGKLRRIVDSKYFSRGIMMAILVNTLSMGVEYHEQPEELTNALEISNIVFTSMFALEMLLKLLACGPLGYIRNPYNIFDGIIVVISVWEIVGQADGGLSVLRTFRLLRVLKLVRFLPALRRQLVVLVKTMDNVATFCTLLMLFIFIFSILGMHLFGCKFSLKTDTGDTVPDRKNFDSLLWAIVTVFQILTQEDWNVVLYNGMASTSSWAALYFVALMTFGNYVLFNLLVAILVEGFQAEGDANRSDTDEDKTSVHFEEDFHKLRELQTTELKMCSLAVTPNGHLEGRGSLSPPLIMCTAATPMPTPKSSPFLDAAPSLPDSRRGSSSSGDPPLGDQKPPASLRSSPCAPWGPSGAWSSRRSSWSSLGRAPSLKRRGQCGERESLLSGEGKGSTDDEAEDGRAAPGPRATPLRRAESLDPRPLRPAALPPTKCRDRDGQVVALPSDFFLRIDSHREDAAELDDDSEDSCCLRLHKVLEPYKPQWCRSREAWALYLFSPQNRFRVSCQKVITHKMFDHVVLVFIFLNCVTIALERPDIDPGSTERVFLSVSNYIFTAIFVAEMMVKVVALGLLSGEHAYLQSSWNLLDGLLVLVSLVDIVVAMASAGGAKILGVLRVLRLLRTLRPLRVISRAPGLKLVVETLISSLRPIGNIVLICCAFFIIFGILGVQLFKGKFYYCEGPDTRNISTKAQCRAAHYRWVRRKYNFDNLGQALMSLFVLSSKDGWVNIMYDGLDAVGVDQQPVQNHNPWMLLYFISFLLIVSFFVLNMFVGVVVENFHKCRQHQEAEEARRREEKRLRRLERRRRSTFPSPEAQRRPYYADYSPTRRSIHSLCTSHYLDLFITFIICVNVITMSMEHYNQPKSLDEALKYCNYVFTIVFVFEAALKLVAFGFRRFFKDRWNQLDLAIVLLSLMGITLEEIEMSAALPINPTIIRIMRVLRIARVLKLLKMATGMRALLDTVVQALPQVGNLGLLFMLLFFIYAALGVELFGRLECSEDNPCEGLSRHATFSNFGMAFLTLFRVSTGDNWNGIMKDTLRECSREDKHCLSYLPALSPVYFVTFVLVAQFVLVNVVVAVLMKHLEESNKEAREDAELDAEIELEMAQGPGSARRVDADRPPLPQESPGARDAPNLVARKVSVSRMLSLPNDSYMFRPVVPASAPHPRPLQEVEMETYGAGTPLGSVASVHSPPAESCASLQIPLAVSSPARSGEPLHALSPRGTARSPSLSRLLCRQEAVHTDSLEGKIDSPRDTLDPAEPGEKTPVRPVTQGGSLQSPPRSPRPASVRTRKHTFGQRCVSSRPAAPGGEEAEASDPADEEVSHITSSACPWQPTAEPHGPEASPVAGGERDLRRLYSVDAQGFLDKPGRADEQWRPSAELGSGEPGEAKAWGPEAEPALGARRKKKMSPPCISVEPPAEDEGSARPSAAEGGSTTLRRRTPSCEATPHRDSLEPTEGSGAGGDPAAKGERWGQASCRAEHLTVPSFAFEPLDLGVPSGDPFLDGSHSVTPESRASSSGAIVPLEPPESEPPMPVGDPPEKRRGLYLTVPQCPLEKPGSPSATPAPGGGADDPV

The target of the first assay is T1, TRPV1 (Homo sapiens, UniProt Q8NER1).
T1 construct: expressed in transfected cells; host or cells: HEK293-Tet-OFF
T1 sequence (Q8NER1 whole entry, species assumed): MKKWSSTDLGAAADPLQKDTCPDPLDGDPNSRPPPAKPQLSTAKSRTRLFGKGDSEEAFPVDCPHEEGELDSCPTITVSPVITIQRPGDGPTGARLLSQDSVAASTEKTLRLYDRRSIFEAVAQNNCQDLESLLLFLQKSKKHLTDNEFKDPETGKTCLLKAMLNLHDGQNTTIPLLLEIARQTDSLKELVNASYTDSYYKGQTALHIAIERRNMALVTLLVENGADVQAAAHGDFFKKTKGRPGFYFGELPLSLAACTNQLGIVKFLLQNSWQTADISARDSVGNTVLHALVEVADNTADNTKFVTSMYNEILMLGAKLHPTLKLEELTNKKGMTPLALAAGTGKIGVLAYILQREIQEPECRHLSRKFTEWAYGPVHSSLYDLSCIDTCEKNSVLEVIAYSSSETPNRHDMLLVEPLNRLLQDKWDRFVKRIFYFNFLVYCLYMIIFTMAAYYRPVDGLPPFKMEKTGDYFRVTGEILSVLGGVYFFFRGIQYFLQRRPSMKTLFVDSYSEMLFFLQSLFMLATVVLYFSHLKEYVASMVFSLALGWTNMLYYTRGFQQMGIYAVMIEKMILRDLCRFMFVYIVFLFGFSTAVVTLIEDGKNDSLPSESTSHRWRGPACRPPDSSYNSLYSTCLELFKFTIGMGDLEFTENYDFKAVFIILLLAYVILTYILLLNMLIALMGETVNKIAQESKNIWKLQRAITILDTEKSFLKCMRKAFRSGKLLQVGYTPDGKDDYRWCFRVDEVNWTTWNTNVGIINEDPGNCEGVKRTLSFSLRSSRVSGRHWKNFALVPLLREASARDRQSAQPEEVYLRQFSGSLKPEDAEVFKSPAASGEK
Nature of the assay: TRPV1 Screening Assay (FLIPR). In kind it is cell-based. The note with it: HEK293-TetOFF-TRPV1, capsaicin (50 nM final), read-out: VR1 flipr CAPSAICIN IC50. The source says: • 1) Cell line: HEK293-Tet^OFF-TRPV1 • 2) Media: MEM (Invitrogen) • 3) 10% Tet-FBS (Clontech #8630-1) • 4) Fungizone (Gibco #15290-018 (100×)) • 5) Penn/Strep (Gibco #15140-122 (100×)) • 6) Geneticin (Gibco #10131-027 (100×)) • 7) Hygromycin (Clontech #8057-1) • 8) Doxycycline (Clontech #8634-1) • 9) Trypsin/EDTA (Gibco #25200-056) • 10) 100 mm cell culture plates (Falcon #3003) • 11) 96-well poly-D-lysine plates (Fisher #08-774-256) • 12) Hank's Balanced Salt Solution (HBSS) (GIBCO #14025-092) • 13) HEPES Buffer (GIBCO #15630-080) • 14) 30% BSA (Research Organics #1334A) • 15) Probenecid (Sigma P-8761) • 16) Fluo-4, AM (50 μg) (Molecular robes F-23917) • 17) Pluronic F-127 20% (Molecular Probes P-3000). • 18) capsazepine (Sigma C-191) • 19) capsaicin (Sigma M-2028) • 20) compound plates (NUNC #442587) • 21) black pipet tips 96-well FLIPR (Robbins Scientific 1043-24-0) • 22) Additional reagents available from Fisher: methanol, DMSO, NaOH Reagent Preparation: 1) Cells: HEK293-Tet^OFF-TRPV11
• and Doxycycline 2.5 μg/mL final (from a 1000× stock in PBS) • Cells must be fed and/or split every 2-3 days (to maintain transcriptional repression with Doxycycline). • Must be split no more than 1:5 (50-75% confluency) to maintain growth and viability. • Grown on regular tissue culture plates (e.g. Falcon 3003-100 mm) • SpliT-cells via Trypsin/EDTA: incubate with trypsin at room temperature no longer than 5 min (HEK293 cells have a tendency to ball up if over trypsinized). • Two days prior to assay, the cells are split into 96-well plates in cell media in the absence of doxycycline at a concentration of 40,000 cells/well in a volume of 200 μL, 2) FLIPR buffer is prepared fresh:
Add 5 mL of Probenecid Solution, prepared as follows: 710 mg of probenecid (Sigma P-8761) is solubilized in 5 mL of 1 N NaOH, 5 mL of above buffer s added for final volume of 10 mL (of which 5 mL goes back into FLIPR buffer)
Combine 42 μL of dye mixture with 11 mL of FLIPR buffer/96-well plate.
Stock solution of 0.1 M capsaicin is prepared in MeOH (50 mg+1.6 mL MeOH). Store 50 μL aliquots at −80° C.
For assay: • a) Dilute stock by adding 0.8 μL into 1 mL of MeOH (final=80 μM). • b) Add 50 μL of diluted stock to 20 mL of FLIPR buffer (final=0.2 μM) • c) Agonist solution is added 150 μL/well to 96-well plate. • d) Final agonist concentration on cells will be 50 nM. […] Laser is adjusted upwards for an average signal≧10,000/well and less than 10% variability. 7) Compound addition conditions are as follows: • FLIPR setup (dual sequence parameters): • Sequence 1: • First interval 1 sec/60 counts • Second interval 6 sec/50 counts • Fluid addition=50 μL • Pipettor=110 μL • Dispense Speed=30 μL/sec • Sequence 2: • Second interval 1 sec/60 counts • Second interval 6 sec/40 counts • Fluid addition=50 μL • Pipettor height=140 μL • Dispense Speed=50 μL/sec Data Analysis:
1) Data from both additions is reported as Max-Min for each well
`O=C(Nc1ccc(C(F)(F)F)cc1)N1CCC2(CC1)C(=O)N(c1ccccc1)C2c1ccccc1` (stereo not drawn): the IC50 stood at 171 nM.

Consider `O=C(Nc1ccc(C(F)(F)F)cc1)N1CCC2(CC1)C(=O)N(c1cncnc1)C2c1ccccc1` (stereo not drawn), for which the IC50 turned out to be 184 nM. On to `O=C(Nc1cccc2ccccc12)N1CCC2(CC1)C(=O)N(c1ccccc1)C2c1ccccn1` (stereo not drawn), for which the IC50 came out at 201 nM.

For the compound `CC(C)c1ccc(NC(=O)N2CCC3(CC2)C(=O)N(c2cncnc2)C3c2ccccc2)cc1` (stereo not drawn), the IC50 amounted to 240 nM.

The next assay deals with T1, TRPV1. Nature of the assay: TRPV1 Screening Assay (FLIPR). The note with it: HEK293-TetOFF-TRPV1, PMA, read-out: VR1 flipr PMA IC50. In kind it is cell-based.
As to `O=C(Nc1ccc(C(F)(F)F)cc1)N1CCC2(CC1)C(=O)N(c1cncnc1)C2c1ccccc1` (stereo not drawn), the IC50 came out at 210 nM. Same read-out and setting: for `O=C(Nc1cccc2ccccc12)N1CCC2(CC1)C(=O)N(c1ccccc1)C2c1ccccn1` (stereo not drawn) the value was 233 nM; for `CC(C)c1ccc(NC(=O)N2CCC3(CC2)C(=O)N(c2cncnc2)C3c2ccccc2)cc1` (stereo not drawn), 155 nM.

The next assay has as its target T2, human Cav3.2 (Homo sapiens, UniProt O95180).
T2 construct: expressed in transfected cells
Put plainly: IonWorks Screen for hCaV3.2. To be noted: IonWorks HT, HEK cells expressing human Cav3.2, 10 minutes incubation, pulse 10; read-out: IW hCav3.2 IC50. The class given is cell-based. The source says: Functional evaluation of voltage-gated ion channels can be used to determine potency and/or single concentration efficacy of the Azetidinone Derivatives. Two different methodologies can be used to measure ion currents: the Ionworks HT (Molecular Devices, Sunnyvale, Calif.) a moderate throughput voltage clamp screening platform that utilizes 96-well compound plates and conventional whole cell patch clamp for lower throughput, higher fidelity determinations.
HEK cells are transiently transfected and then selected for stable heterologous expression of different channel proteins of interest. Calcium channel cell lines expressed a resting potassium current, human Kir2.1, and the pore forming α-subunit of voltage-gated calcium channels. In the case of Cav2.1 cells the auxiliary subunit, β2α, is also expressed. Calcium channel lines that are used to generate the data will express either human Cav3.2, rat Cav3.2 or human Cav2.1. The human heart sodium channel, hNav1.5, are stably expressed in CHO cells.
Cell lines can be grown at 37° C. in humidified incubators, equilibrated with 95% air/5% CO2. CHO cells can be grown in Ham's F-12 medium. HEK cells can be grown in DMEM. All media are supplemented with 10% heat-inactivated fetal bovine serum, penicillin, streptomycin and appropriate selection antibiotics (zeocin, geneticin and/or hygromycin). Cells are passaged when 80% confluent or less.
IonWorks Screen for hCaV3.2
The extracellular buffer for experiments using this instrument contained the following (mM) (NaCl 125, HEPES 10, KCl 5.4, CaCl2 1.8, MgCl2 1.8, 0.2 BaCl2 pH 7.35). The IonWorks uses amphotericin to gain electrical access to the cell interior. The internal solution contained (mM concentrations): 130 K-gluconate, 20 KCl, 5 HEPES-KOH (pH 7.25), 2 CaCl2, 1 MgCl2. Amphotericin added at 5 mg in 65 mL when present (in 650 μL DMSO). All internal and external solutions for this experiment contain 1% DMSO. Cells were acutely trypsinized from a T-75 flask and resuspended in extracellular buffer at a density of 2×10^5 cells/mL.
Experiments were performed at room temperature. Transmembrane potential was held at −100 mV for 5 seconds prior to running the voltage protocol. During this time leak currents were measured during a step to −110 mV (200 milliseconds), T-type calcium currents were activated with a 250 millisecond step to −20 mV. This depolarization step was repeated for a total of 10 pulses with an interpulse interval of 1 second. Data were excluded if the following acceptance criteria were not met: total resistance for the pre-compound scan>65 MΩ, pre-compound current>250 pA, post compound total resistance>50 MΩ.
T-type currents were measured as the peak inward current minus the current at the end of the 250 msec step to −20 mV. After the recoding configuration was established there was a pre-compound measurement of current amplitude. Compound was added as a 3× solution containing 1% DMSO. After incubation with compound for 10 minutes currents were measured again. The current amplitude after compound addition was divided by the pre-compound current for pulse 10 to determine the fraction of current remaining after compound addition. For each compound, 8-point concentration-effect relationships were measured with ½ log serial dilutions.
Regarding `O=C(Nc1ccc(F)c(F)c1)N1CCC2(CC1)C(=O)N(c1ccccc1)C2c1ccc(Cl)cc1` (stereo not drawn), the IC50 stood at 359 nM. The same measure, in the same setting: the figure for `CC(C)N1C(=O)C2(CCN(C(=O)Nc3ccc(Cl)cc3)CC2)C1c1ccc(Cl)cc1` (stereo not drawn) is 423 nM; for `CC(C)N1C(=O)C2(CCN(C(=O)Nc3cc(Cl)cc(Cl)c3)CC2)C1c1ccc(Cl)cc1` (stereo not drawn) it is 212 nM; for `CC(C)N1C(=O)C2(CCN(C(=O)Nc3ccc(F)c(F)c3)CC2)C1c1ccc(Cl)cc1` (stereo not drawn) it is 304 nM. Consider `O=C(Nc1ccc(F)c(F)c1)N1CCC2(CC1)C(=O)N(c1ccc(F)cc1)C2c1ccc(Cl)cc1` (stereo not drawn), for which the 50% inhibitory concentration (IC50) amounted to 293 nM.

With `O=C(Nc1cc(F)cc(F)c1)N1CCC2(CC1)C(=O)N(c1ccc(F)cc1)C2c1ccc(Cl)cc1` (stereo not drawn), the IC50 was 504 nM. `O=C(Nc1ccc(F)c(F)c1)N1CCC2(CC1)C(=O)N(c1ccc(F)cc1)C2c1ccccn1` (stereo not drawn): the IC50 was 490 nM. With `O=C(Nc1ccccc1)N1CCC2(CC1)C(=O)N(c1cccc(Cl)c1)C2c1ccccn1` (stereo not drawn), the IC50 came to 240 nM.

Regarding `O=C(Nc1ccc(F)c(F)c1)N1CCC2(CC1)C(=O)N(c1cccc(Cl)c1)C2c1ccccn1` (stereo not drawn), the IC50 is 117 nM.

Regarding `Cc1c(Cl)cccc1NC(=O)N1CCC2(CC1)C(=O)N(c1ccccc1)C2c1ccccc1` (stereo not drawn) [drawing 414], the IC50 came to 192 nM.

Another assay addresses T3, human NPC1L1 (Homo sapiens, UniProt Q9UHC9).
T3 construct: expressed in transfected cells; host or cells: HEK-293 (geneticin selection)
T3 sequence (Q9UHC9 22-1359): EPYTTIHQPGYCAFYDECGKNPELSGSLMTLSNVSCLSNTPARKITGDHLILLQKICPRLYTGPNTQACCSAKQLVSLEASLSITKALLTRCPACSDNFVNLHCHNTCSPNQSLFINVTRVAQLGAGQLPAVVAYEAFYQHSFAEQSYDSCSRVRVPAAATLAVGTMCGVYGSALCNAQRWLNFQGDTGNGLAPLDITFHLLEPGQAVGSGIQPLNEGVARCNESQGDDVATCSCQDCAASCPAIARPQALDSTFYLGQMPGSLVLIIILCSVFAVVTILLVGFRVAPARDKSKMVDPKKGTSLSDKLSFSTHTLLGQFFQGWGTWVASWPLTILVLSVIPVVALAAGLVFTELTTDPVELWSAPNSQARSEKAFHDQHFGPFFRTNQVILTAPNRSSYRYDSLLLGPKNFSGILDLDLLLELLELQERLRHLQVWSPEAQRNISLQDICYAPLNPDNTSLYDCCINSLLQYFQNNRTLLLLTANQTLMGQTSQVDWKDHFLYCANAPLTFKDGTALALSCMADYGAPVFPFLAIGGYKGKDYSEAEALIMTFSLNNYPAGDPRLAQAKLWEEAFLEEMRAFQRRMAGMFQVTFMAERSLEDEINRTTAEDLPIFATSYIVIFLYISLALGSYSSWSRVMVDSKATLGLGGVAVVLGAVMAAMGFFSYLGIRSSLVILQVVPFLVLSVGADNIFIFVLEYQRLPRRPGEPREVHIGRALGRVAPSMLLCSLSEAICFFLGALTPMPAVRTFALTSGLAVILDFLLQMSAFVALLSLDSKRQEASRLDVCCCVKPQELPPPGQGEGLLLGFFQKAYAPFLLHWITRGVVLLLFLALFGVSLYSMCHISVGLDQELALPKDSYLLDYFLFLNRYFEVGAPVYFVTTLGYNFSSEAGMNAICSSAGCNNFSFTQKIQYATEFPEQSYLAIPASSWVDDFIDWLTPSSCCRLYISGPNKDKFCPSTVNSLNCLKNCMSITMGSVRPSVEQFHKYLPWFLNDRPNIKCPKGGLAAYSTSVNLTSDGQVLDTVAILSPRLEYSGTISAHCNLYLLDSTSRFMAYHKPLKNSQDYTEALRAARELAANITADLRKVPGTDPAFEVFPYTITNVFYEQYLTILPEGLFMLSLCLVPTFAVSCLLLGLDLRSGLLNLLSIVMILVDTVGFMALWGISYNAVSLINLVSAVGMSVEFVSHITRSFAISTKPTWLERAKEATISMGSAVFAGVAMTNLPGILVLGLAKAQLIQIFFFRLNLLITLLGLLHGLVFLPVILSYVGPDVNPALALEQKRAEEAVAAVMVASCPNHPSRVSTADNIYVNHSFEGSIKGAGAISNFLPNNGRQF
Put plainly: NPC1L1 Binding Assay, human. To be noted: HEK-293 cells expressing human NPC1L1; competition with 250 nM BODIPY-labeled glucuronidated ezetimibe, 4 h at 37° C. How it is done: HEK-293 cells expressing human NPC1L1 were plated into 384-well black/clear plates (BD Biosciences, Bedford Mass.) for binding experiments the following day. Cell growth media (DMEM, 10% fetal calf serum, 1 mg/mL geneticin, 100 Units/mL penicillin) was aspirated. Cell growth media ([…]) containing 250 nM BODIPY-labeled glucuronidated ezetimibe was added to each well. Cell growth media ([…] containing the indicated concentration of compound was then added to the wells unlabeled glucuronidated ezetimibe […]) was used to determine nonspecific binding. The binding reaction was allowed to proceed for 4 h at 37° C. Subsequently the cell growth media was aspired and the cells washed once with PBS. The remaining fluorescent labeled glucuronidated ezetimibe bound to the cells was quantified using a FlexStation plate reader (Molecular Devices, Sunnyvale Calif.) to measure fluorescence intensity. Ki values were determined from competition binding curves (n=4 for each point) using Prism and Activity Base software.
`COc1ccc(Cl)cc1NC(=O)N1CCC2(CC1)C(=O)N(c1ccccc1)C2c1ccccc1` (stereo not drawn) displayed a Ki of 6360 nM. For `O=C(Nc1ccccc1C(F)(F)F)N1CCC2(CC1)C(=O)N(c1ccccc1)C2c1ccccc1` (stereo not drawn), affinity was put at a Ki of 8130 nM. The Ki values of the last two compounds are within 1.5-fold of each other. Regarding `Cc1cccc(C)c1NC(=O)N1CCC2(CC1)C(=O)N(c1ccccc1)C2c1ccccc1` (stereo not drawn), the Ki was determined as 8190 nM. The Ki values of the last two compounds are within 1.5-fold of each other. Take `O=C(Nc1cccc2ccccc12)N1CCC2(CC1)C(=O)N(c1ccccc1)C2c1ccccc1` (stereo not drawn): the Ki was 2490 nM.
